Source: patent publication US12569502B2, “Use of bile acids and derivatives thereof in preparation of GPR39 agonist” (PEKING UNIVERSITY, priority 2019, dated 2026)
Read-outs that look alike come from different tables or passages of the source.

Tests used:
Type in all cases: cell-based
HEK293T cells = test: FLIPR calcium imaging on HEK293T cells not expressing GPR39; conditions: 293T cells not expressing GPR39
Method: (§1) Bile acids and derivatives thereof as listed in Table 1 below were dissolved in dimethyl sulfoxide (DMSO, Sigma Co.) solvent to formulate a stock solution of 50 mM, which was stored at −20° C. During calcium imaging with FLIPR, the drug was diluted with the above 4K solution into a working concentration of 400 μM, and packaged into another 96-well plate. The drug solution and the cell samples in Example 2.2 were placed into the designated position of the FLIPR instrument (MolecularDevices Co.) respectively. The instrument parameters were set so that 50 μL of the drug solution may be added into the culture wells within 2 s. The fluorescence recording result within the first 30 seconds was used as the baseline value. The FLIPR robot arm was programmed to automatically add bile acids and derivatives thereof into the cell sample culture wells at the 31st second. 1% of DMSO solvent was used as the blank control.
The results of FLIPR calcium imaging experiment of the bile acids and derivatives thereof are shown in FIG. 1, wherein the horizontal coordinate represents the time, and the vertical coordinate represents the relative fluorescence intensity.

[1] = biological target: T1, GPR39 receptors on m39-20 cell lines (Mus musculus, UniProt Q5U431, T447P); test: FLIPR calcium imaging on m39-20 cell lines stably expressing murine-derived GPR39; conditions: for Bile acid + 4 μM zinc ions Efficacy / Only bile acid Efficacy: activation efficacy; for intracellular calcium signals in m39-20 cell lines: FIG. 1; for intracellular calcium signaling response in m39-20 cells: absence of zinc ions; for change of activation efficacy after the addition of zinc ions: Table 1, FIG. 2; for activation capacity on GPR39 receptors among the bile acids: dose curves
T1 construct: P2A-mCherry (C); expressed in transfected cells
T1 sequence (Q5U431 1-456 T447P): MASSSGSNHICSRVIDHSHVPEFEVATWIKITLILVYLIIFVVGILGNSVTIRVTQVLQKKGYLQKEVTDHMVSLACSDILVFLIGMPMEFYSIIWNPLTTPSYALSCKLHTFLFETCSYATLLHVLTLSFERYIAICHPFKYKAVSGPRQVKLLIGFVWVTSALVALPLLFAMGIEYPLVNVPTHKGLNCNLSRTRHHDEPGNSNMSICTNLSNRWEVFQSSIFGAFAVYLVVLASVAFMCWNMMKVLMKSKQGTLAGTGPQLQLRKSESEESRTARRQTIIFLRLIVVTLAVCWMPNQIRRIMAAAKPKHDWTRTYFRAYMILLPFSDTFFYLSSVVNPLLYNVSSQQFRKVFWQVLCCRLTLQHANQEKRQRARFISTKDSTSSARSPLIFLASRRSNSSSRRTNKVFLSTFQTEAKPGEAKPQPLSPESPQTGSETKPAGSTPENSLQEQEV
Text: Intracellular calcium imaging is a routine technique to study cell functions, the basic principle of which is to detect the concentration of the calcium ion in tissues or cells using a calcium indicator, thereby reflecting certain reactions in the tissues or cells. In the present application, the intracellular calcium released from a cell line that stably or transiently expresses GPR39 is detected using Fluo8-AM, a calcium fluorescent indicator, so as to determine the activation of the GPR39 receptor by the bile acid and derivative thereof.
HEK293T cells (purchased from ATCC) were seeded in a 6-well plate (coming Co.) at an appropriate density (about 0.5-2×10^5/well). When the cell density reached above 30%, the plasmid PLVXK-mGPR39-P2A-mCherry was transfected with Lipofectamine 3000 (Invitrogen) at a concentration of 2 μg per well. The cells were passaged 24 hours after transfection, the puromycin (gibco) was added into the medium at a concentration of 2 μg/mL for antibiotic screening of cells. After 2-4 days of continuous screening, the cells screened for puromycin resistance were trypsinized and screened by flow cytometry for monoclones with red fluorescence. And these monoclones were seeded in a 96-well plate and cultured in a medium without puromycin for around 10 days. Cell colonies with red fluorescence were sorted under a fluorescence microscope, trypsinized and then passaged and expanded in a 6-well plate. Cell lines m39-20 stably expressing murine-derived GPR39 were obtained through the above methods.
Calcium dye Fluo8-AM (ATT bioquest Co.) was dissolved in DMSO solvent to formulate a stock solution of 1 μg/μL. […] After then, the calcium dye working solution was replaced with the 4K solution (50 μL per well), and acclimated for 5 min at room temperature for the subsequent calcium imaging experiment.
as §1, with “The drug solution and the cell samples in Example 2.2 were placed into the designated position of the FLIPR instrument (MolecularDevices Co.) respectively.” left out
After that, the calcium dye working solution was replaced with a 4K solution containing 4 μM zinc ions (50 μL per well), followed by acclimation for 5 min at room temperature.

[2] = biological target: T2, human GPR39 receptors on human GPR39-2 cell lines (Homo sapiens, UniProt O43194); test: FLIPR calcium imaging on human GPR39-2 cell line stably expressing human GPR39; conditions: for intracellular calcium signal response of human GPR39-2: FIG. 9; for EC50: human GPR39-2 cells
T2 construct: P2A-mCherry (C)
T2 sequence (O43194 1-453): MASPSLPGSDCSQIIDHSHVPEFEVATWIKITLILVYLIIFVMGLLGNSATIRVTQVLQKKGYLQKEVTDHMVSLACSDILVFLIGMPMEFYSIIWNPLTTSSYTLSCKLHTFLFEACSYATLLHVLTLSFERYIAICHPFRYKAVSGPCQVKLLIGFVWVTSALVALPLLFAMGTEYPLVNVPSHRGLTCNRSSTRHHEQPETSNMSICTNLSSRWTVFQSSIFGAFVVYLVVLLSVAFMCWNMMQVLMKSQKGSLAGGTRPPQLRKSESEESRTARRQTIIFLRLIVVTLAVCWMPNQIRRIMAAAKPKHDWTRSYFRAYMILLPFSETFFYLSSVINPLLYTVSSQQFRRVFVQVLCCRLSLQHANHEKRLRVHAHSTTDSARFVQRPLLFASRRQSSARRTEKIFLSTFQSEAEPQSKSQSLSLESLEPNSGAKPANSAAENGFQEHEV
Text: The human GPR39 cDNA vector was purchased from WZ Biosciences Inc., Shandong. It was cloned onto a lentiviral vector PLVXK-hGPR39-P2A-mCherry (FIG. 10) through PCR amplification using primers hGPR39-F (which sequence was shown as set forth in SEQshown as set forth in SEQ ID NO: 15) and hGPR39-R (which sequence was shown as set forth in SEQ shown as set forth in SEQ ID NO: 16), in which the sequence of the target gene human GPR39 cDNA was shown as set forth in SEQ shown as set forth in SEQ ID NO: 14. A cell line human GPR39-2 stably expressing human GPR39 gene was constructed according to the method of Example 1.

[3] = Bile acid + 4 μM zinc ions EC50, m39-20 cells, 4 μM zinc ions
[4] = m39-20 cells, no zinc ions, read-out: Only bile acid EC50

Structure (SMILES) | calcium signals on HEK293T cells not expressing GPR39 (HEK293T cells) | EC50 [1, 3] [µM] | Bile acid + 4 μM zinc ions Efficacy ([1]; m39-20 cells, 4 μM zinc ions) [%] | Only bile acid Efficacy ([1]; m39-20 cells, no zinc ions) [%] | activation of GPR39 receptors in the presence of zinc ions ([1]; m39-20 cells, 4 μM zinc ions) | EC50 [1, 4] [µM] | intracellular calcium signals in m39-20 cell lines [1] | intracellular calcium signaling response in m39-20 cells [1] | change of activation efficacy after the addition of zinc ions ([1]; m39-20 cells) | activation capacity on GPR39 receptors among the bile acids ([1]; m39-20 cells) | intracellular calcium signal response of human GPR39-2 [2] | EC50 ([2]; no added zinc ions, read-out: EC50 Only agonist) [µM] | EC50 ([2]; read-out: EC50 Agonist + 4 μM zinc ions, 4 μM zinc ions) [µM]
C[C@H](CCC(=O)O)[C@H]1CC[C@H]2[C@@H]3[C@H](O)C[C@@H]4C[C@H](O)CC[C@]4(C)[C@H]3CC[C@]12C [CDCA, Chenodeoxycholic acid] | may induce observable calcium signals | 75.1 ± 7.6 | 85 ± 5.2 | 0 | capable of activating GPR39 receptors | > 200 | – | – | – | – | – | – | –
C[C@H](CCC(=O)O)[C@H]1CC[C@H]2[C@@H]3CC[C@@H]4C[C@H](O)CC[C@]4(C)[C@H]3C[C@H](O)[C@]12C [DCA, Deoxycholic acid] | may induce observable calcium signals | 58.4 ± 10 | 93.1 ± 1.4 | 0 | capable of activating GPR39 receptors | > 200 | – | – | – | – | – | – | –
C[C@H](CCC(=O)NCC(=O)O)[C@H]1CC[C@H]2[C@@H]3CC[C@@H]4C[C@H](OS(=O)(=O)O)CC[C@]4(C)[C@H]3CC[C@]12C [GLCAS] | – | 8 ± 1.8 | 110.8 ± 4.1 | 98.8 ± 4.6 | – | 47.9 ± 9.4 | varying extents of intracellular calcium signals | strong intracellular calcium signaling response | increases slightly | strongest activation capacity | capable of inducing intracellular calcium signal response | – | –
C[C@H](CCC(=O)NCCS(=O)(=O)[O-])[C@H]1CC[C@H]2[C@@H]3CC[C@@H]4C[C@H](OS(=O)(=O)[O-])CC[C@]4(C)[C@H]3CC[C@]12C.[Na+].[Na+] [TLCAS] | – | – | – | – | – | – | varying extents of intracellular calcium signals | strong intracellular calcium signaling response | increases slightly | strongest activation capacity | capable of inducing intracellular calcium signal response | 69.4 ± 5 | 9.6 ± 6.3
C[C@H](CCC(=O)O)[C@H]1CC[C@H]2[C@@H]3[C@@H](O)C[C@@H]4C[C@H](OS(=O)(=O)O)CC[C@]4(C)[C@H]3CC[C@]12C [UDCAS] | – | 68.6 ± 16.3 | 84.7 ± 2.4 | 0 | – | > 200 | varying extents of intracellular calcium signals | – | obviously improved | – | – | – | –
